Test results reported in ChEMBL document CHEMBL1909046, “DrugMatrix in vitro pharmacology data”.

Assays:
[1] = biological target: T1, Type-2 angiotensin II receptor (Homo sapiens, UniProt P50052); format: cell-based; conditions: cho-k1; also: in other assays of this panel Not Active means under 50% inhibition at 10 µM
T1 sequence (P50052 whole entry): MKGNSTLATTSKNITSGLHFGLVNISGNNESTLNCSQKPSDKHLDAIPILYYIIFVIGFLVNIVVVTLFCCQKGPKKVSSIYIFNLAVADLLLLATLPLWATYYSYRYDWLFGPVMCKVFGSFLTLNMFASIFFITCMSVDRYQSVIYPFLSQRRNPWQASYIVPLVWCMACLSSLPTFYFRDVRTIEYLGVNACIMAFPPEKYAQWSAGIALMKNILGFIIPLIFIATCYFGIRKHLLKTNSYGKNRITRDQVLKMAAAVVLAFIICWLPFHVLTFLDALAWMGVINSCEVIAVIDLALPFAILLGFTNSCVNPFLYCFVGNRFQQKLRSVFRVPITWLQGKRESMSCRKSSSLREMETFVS

[2] = DRUGMATRIX: Atrial Natriuretic Factor (ANF) radioligand binding (ligand: [125I] ANF (rat)); format: cell membranes, Cavia porcellus, Dunkin-Hartley, Adrenal gland, Membrane; conditions: Not Active = under 50% inhibition at 10 µM
[3] = biological target: T2, 3-hydroxy-3-methylglutaryl-coenzyme A reductase (Homo sapiens, UniProt P04035); set-up: species or system Escherichia coli;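 also: enzyme inhibition assay of HMG-CoA reductase using radiolabeled [14C]HMG-CoA as substrate; in other assays of this panel Not Active means under 50% inhibition at 10 µM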
T2 sequence (P04035 whole entry): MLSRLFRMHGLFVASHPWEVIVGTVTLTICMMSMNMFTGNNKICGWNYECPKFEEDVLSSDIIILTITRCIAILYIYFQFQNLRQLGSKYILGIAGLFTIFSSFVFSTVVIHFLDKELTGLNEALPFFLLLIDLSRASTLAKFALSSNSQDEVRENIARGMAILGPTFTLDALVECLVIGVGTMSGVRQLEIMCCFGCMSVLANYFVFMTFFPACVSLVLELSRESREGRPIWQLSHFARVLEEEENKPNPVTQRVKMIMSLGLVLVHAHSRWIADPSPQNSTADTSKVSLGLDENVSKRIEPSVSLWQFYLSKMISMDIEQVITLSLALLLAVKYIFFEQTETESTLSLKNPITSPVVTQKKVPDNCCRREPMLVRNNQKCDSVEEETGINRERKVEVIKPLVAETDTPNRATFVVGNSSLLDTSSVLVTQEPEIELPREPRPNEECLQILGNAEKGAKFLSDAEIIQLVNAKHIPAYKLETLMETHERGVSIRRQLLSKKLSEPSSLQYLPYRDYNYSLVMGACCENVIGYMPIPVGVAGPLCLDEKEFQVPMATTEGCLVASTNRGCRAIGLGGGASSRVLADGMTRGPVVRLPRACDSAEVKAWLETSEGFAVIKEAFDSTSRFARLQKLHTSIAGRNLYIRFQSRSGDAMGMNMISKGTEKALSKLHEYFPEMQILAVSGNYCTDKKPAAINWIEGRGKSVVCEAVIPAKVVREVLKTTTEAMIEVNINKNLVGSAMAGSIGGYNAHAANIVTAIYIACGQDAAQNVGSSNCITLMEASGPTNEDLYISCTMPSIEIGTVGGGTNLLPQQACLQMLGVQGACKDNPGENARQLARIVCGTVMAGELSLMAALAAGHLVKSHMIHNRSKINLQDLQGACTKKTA

[4] = DRUGMATRIX: Interleukin IL-1 radioligand binding (ligand: [125I] interleukin 1beta); format: cell membranes, Membrane; conditions: nih3t3; Not Active = under 50% inhibition at 10 µM
[5] = DRUGMATRIX: Leukotriene, BLT (LTB4) radioligand binding (ligand: [3H]LTB4); format: cell membranes, Membrane; conditions: u-937; Not Active = under 50% inhibition at 10 µM
[6] = DRUGMATRIX: Nicotinic Acetylcholine radioligand binding (ligand: [125I] Epibatidine); format: cell membranes, Membrane; conditions: imr-32; Not Active = under 50% inhibition at 10 µM
[7] = biological target: Kappa-type opioid receptor (Homo sapiens, UniProt P41145); assay: DRUGMATRIX: Opiate kappa (OP2, KOP) radioligand binding (ligand: [3H] Diprenorphine); format: cell membranes, HEK293, Membrane; conditions: hek293; Not Active = under 50% inhibition at 10 µM
[8] = biological target: T3, Interstitial collagenase (Homo sapiens, UniProt P03956); assay: biochemical; format: tissue-based, Rheumatoid synovial fibroblasts;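 also: MMP-1 enzyme inhibition assay using a peptide substrate; in other assays of this panel Not Active means under 50% inhibition at 10 µM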
T3 sequence (P03956 whole entry): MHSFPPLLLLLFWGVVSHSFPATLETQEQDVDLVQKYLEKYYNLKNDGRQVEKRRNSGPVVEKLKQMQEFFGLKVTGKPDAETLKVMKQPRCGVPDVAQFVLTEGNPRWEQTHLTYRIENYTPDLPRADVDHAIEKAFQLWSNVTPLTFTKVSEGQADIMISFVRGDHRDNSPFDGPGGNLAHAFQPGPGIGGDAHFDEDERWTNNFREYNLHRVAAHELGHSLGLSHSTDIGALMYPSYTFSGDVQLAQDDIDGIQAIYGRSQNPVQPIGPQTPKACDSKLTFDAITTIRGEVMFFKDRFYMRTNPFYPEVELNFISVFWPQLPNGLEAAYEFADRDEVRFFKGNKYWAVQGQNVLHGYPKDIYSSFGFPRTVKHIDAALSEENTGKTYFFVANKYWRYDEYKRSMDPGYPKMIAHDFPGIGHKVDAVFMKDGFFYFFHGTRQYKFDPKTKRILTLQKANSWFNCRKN

Chain of Kappa-type opioid receptor (P41145 whole entry): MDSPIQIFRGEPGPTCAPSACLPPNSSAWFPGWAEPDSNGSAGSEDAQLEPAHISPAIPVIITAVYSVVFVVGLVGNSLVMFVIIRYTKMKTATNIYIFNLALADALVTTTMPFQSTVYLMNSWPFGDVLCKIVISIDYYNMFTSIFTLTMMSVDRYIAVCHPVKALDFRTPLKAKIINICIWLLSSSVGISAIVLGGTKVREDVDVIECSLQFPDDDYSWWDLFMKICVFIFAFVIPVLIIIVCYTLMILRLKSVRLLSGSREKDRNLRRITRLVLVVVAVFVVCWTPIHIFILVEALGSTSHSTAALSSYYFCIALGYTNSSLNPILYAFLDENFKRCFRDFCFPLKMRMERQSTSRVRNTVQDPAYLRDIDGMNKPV

Oc1ccc(OCc2ccccc2)cc1 [MONOBENZONE]
Not Active: IC50 [1] | IC50 [2] | Ki [2] | IC50 [3] | IC50 [4] | Ki [4] | IC50 [5] | Ki [5] | IC50 [6] | Ki [6] | IC50 [7] | IC50 [8]

CC(C)(Oc1ccc(C2CCCc3ccccc32)cc1)C(=O)O (stereo not drawn) [NAFENOPIN]
Not Active: IC50 [1] | IC50 [2] | Ki [2] | IC50 [3] | IC50 [4] | Ki [4] | IC50 [5] | Ki [5] | IC50 [6] | Ki [6] | IC50 [7] | IC50 [8]

COc1ccc2cc([C@H](C)C(=O)O)ccc2c1 [NAPROXEN]
Not Active: IC50 [1] | IC50 [2] | Ki [2] | IC50 [3] | IC50 [4] | Ki [4] | IC50 [5] | Ki [5] | IC50 [6] | Ki [6] | IC50 [7] | IC50 [8]

CC(C)[C@H]1CC[C@H](C(=O)N[C@H](Cc2ccccc2)C(=O)O)CC1 [NATEGLINIDE]
Not Active: IC50 [1] | IC50 [2] | Ki [2] | IC50 [3] | IC50 [4] | Ki [4] | IC50 [5] | Ki [5] | IC50 [6] | Ki [6] | IC50 [7] | IC50 [8]

CCN[C@@H]1C[C@H](N)[C@@H](O[C@H]2OC(CN)=CC[C@H]2N)[C@H](O)[C@H]1O[C@H]1OC[C@](C)(O)[C@H](NC)[C@H]1O [NETILMICIN]
Not Active: IC50 [1] | IC50 [2] | Ki [2] | IC50 [3] | IC50 [4] | Ki [4] | IC50 [5] | Ki [5] | IC50 [6] | Ki [6] | IC50 [7] | IC50 [8]

COC(=O)C1=C(C)NC(C)=C(C(=O)OCC(C)C)C1c1ccccc1[N+](=O)[O-] (stereo not drawn) [NISOLDIPINE]
Not Active: IC50 [1] | IC50 [2] | Ki [2] | IC50 [3] | IC50 [4] | Ki [4] | IC50 [5] | Ki [5] | IC50 [6] | Ki [6] | IC50 [7] | IC50 [8]

CCOC(=O)C1=C(C)NC(C)=C(C(=O)OC)C1c1cccc([N+](=O)[O-])c1 (stereo not drawn) [NITRENDIPINE]
Not Active: IC50 [1] | IC50 [2] | Ki [2] | IC50 [3] | IC50 [4] | Ki [4] | IC50 [5] | Ki [5] | IC50 [6] | Ki [6] | IC50 [7] | IC50 [8]

C#C[C@]1(OC(C)=O)CC[C@H]2[C@@H]3CCC4=CC(=O)CC[C@@H]4[C@H]3CC[C@@]21C [NORETHINDRONE ACETATE]
Not Active: IC50 [1] | IC50 [2] | Ki [2] | IC50 [3] | IC50 [4] | Ki [4] | IC50 [5] | Ki [5] | IC50 [6] | Ki [6] | IC50 [7] | IC50 [8]

COc1ccc2[nH]c([S+]([O-])Cc3ncc(C)c(OC)c3C)nc2c1 (stereo not drawn) [OMEPRAZOLE]
Not Active: IC50 [1] | IC50 [2] | Ki [2] | IC50 [3] | IC50 [4] | Ki [4] | IC50 [5] | Ki [5] | IC50 [6] | Ki [6] | IC50 [7] | IC50 [8]
